Data reported in ChEMBL document CHEMBL1201862, “PubChem BioAssay data set” (2004).
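Where inhibition never reached the appropriate level, the endpoint shown equals the highest concentration tested. Otherwise, values were interpolated linearly from a five-concentration, 48-hour dose response in 96-well plates. GI50: concentration for 50% inhibition of growth.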 Calls of active or inactive are those of the source. No stated cut-off is given here; in the data, active = GI50 up to about 1.1 µM and inactive = higher.

Assays:
Test in all cases: NCI-60 cell line screen, 48 h
CCRF-CEM = test system: CCRF-CEM
RPMI-8226 = test system: RPMI-8226
SK-MEL-2 = test system: SK-MEL-2
COLO 205 = test system: COLO 205
M19-MEL = test system: M19-MEL
SF-268 = test system: SF-268
UO-31 = test system: UO-31
MOLT-4 = test system: MOLT-4
HOP-62 = test system: HOP-62
SW-620 = test system: SW-620
SR = test system: SR
HT-29 = test system: HT-29
HCC 2998 = test system: HCC 2998
NCI-H522 = test system: NCI-H522
HOP-92 = test system: HOP-92
RXF 631 = test system: RXF 631
LXFL 529 = test system: LXFL 529
M14 = test system: M14
SNB-75 = test system: SNB-75
TK-10 = test system: TK-10
ACHN = test system: ACHN
DMS-273 = test system: DMS-273
DMS-114 = test system: DMS-114
UACC-62 = test system: UACC-62
NCI-H226 = test system: NCI-H226
SF-295 = test system: SF-295
SK-MEL-5 = test system: SK-MEL-5
XF498 = test system: XF498
HOP-18 = test system: HOP-18
HL-60 = test system: HL-60
CAKI-1 = test system: CAKI-1
SF-539 = test system: SF-539
A549 = test system: A549
UACC-257 = test system: UACC-257
IGROV-1 = test system: IGROV-1
OVCAR-5 = test system: OVCAR-5
KM12 = test system: KM12
OVCAR-8 = test system: OVCAR-8
HCT-15 = test system: HCT-15
NCI-H23 = test system: NCI-H23
Malme-3M = test system: Malme-3M
EKVX = test system: EKVX
DLD-1 = test system: DLD-1
OVCAR-3 = test system: OVCAR-3
U-251 = test system: U-251
SK-MEL-28 = test system: SK-MEL-28
K562 = test system: K562
SNB-78 = test system: SNB-78
SK-OV-3 = test system: SK-OV-3
HCT-116 = test system: HCT-116
SN12C = test system: SN12C
LOX IMVI = test system: LOX IMVI
786-0 = test system: 786-0

SMILES: CCOC(=O)/C(Br)=C1/OC(=O)c2ccccc2-c2ccccc21.CCOC(=O)/C(Br)=C1\OC(=O)c2ccccc2-c2ccccc21
- GI50 (CCRF-CEM): 10.9 µM (inactive)
- GI50 (RPMI-8226): 8.97 µM (inactive)
- GI50 (SK-MEL-2): 18.5 µM (inactive)
- GI50 (COLO 205): 15.2 µM (inactive)
- GI50 (M19-MEL): 15.8 µM (inactive)
- GI50 (SF-268): 30.7 µM (inactive)
- GI50 (UO-31): 39.8 µM (inactive)
- GI50 (MOLT-4): 14.7 µM (inactive)
- GI50 (HOP-62): 18.5 µM (inactive)
- GI50 (SW-620): 16.1 µM (inactive)
- GI50 (SR): 16 µM (inactive)
- GI50 (HT-29): 11.3 µM (inactive)
- GI50 (HCC 2998): 21 µM (inactive)
- GI50 (NCI-H522): 15.8 µM (inactive)
- GI50 (HOP-92): 11.8 µM (inactive)
- GI50 (RXF 631): 21.9 µM (inactive)
- GI50 (LXFL 529): 13.6 µM (inactive)
- GI50 (M14): 17 µM (inactive)
- GI50 (SNB-75): 25.2 µM (inactive)
- GI50 (TK-10): 21.6 µM (inactive)
- GI50 (ACHN): 15.7 µM (inactive)
- GI50 (DMS-273): 14.7 µM (inactive)
- GI50 (DMS-114): 15.4 µM (inactive)
- GI50 (UACC-62): 15.4 µM (inactive)
- GI50 (NCI-H226): 27.3 µM (inactive)
- GI50 (SF-295): 21.9 µM (inactive)
- GI50 (SK-MEL-5): 17.5 µM (inactive)
- GI50 (XF498): 18.5 µM (inactive)
- GI50 (HOP-18): 22 µM (inactive)
- GI50 (HL-60): 8.3 µM (inactive)
- GI50 (CAKI-1): 16.4 µM (inactive)
- GI50 (SF-539): 21.5 µM (inactive)
- GI50 (A549): 26.3 µM (inactive)
- GI50 (UACC-257): 18.2 µM (inactive)
- GI50 (IGROV-1): 18.6 µM (inactive)
- GI50 (OVCAR-5): 20 µM (inactive)
- GI50 (KM12): 14.8 µM (inactive)
- GI50 (OVCAR-8): 23.1 µM (inactive)
- GI50 (HCT-15): 19.6 µM
- GI50 (NCI-H23): 21 µM (inactive)
- GI50 (Malme-3M): 17.7 µM (inactive)
- GI50 (EKVX): 31.7 µM (inactive)
- GI50 (DLD-1): 17.9 µM (inactive)
- GI50 (OVCAR-3): 18.2 µM (inactive)
- GI50 (U-251): 23.2 µM (inactive)
- GI50 (SK-MEL-28): 18.6 µM (inactive)
- GI50 (K562): 4.3 µM (inactive)
- GI50 (SNB-78): 20.6 µM (inactive)
- GI50 (SK-OV-3): 36.2 µM (inactive)
- GI50 (HCT-116): 17.7 µM (inactive)
- GI50 (SN12C): 22.8 µM (inactive)
- GI50 (LOX IMVI): 16.5 µM (inactive)
- GI50 (786-0): 17.1 µM (inactive)
